Source: PubChem BioAssay (NCI)
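Growth conditions: 96-well plates. Treatment: test compound, 48 hours, 5 concentrations. Analysis: linear interpolation between bracketing concentrations; unreached endpoints set to highest concentration. Here, GI50 denotes the concentration required for 50% inhibition of growth. Definition used: TGI = concentration required for complete inhibition of growth.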

Tests used:
Assay in all cases: inhibition of tumour cell growth, NCI panel, 48 h
OVCAR-8 ovarian = tested on: OVCAR-8 ovarian
SN12C renal = tested on: SN12C renal
786-0 renal = tested on: 786-0 renal
PC-3 prostate = tested on: PC-3 prostate
MDA-MB-435 = tested on: MDA-MB-435
NCI-H460 lung = tested on: NCI-H460 lung
HS 578T breast = tested on: HS 578T breast
IGROV1 ovarian = tested on: IGROV1 ovarian
ACHN renal = tested on: ACHN renal
KM12 colon = tested on: KM12 colon
MDA-N = tested on: MDA-N
SNB-19 CNS = tested on: SNB-19 CNS
HT29 colon = tested on: HT29 colon
OVCAR-4 ovarian = tested on: OVCAR-4 ovarian
CAKI-1 renal = tested on: CAKI-1 renal
NCI-H23 lung = tested on: NCI-H23 lung
OVCAR-5 ovarian = tested on: OVCAR-5 ovarian
MOLT-4 leukemia = tested on: MOLT-4 leukemia
MDA-MB-231 breast = tested on: MDA-MB-231 breast
NCI-H522 lung = tested on: NCI-H522 lung
HCT-15 colon = tested on: HCT-15 colon
SW-620 colon = tested on: SW-620 colon
NCI-H226 lung = tested on: NCI-H226 lung
RPMI-8226 leukemia = tested on: RPMI-8226 leukemia
SF-295 CNS = tested on: SF-295 CNS
K-562 leukemia = tested on: K-562 leukemia
TK-10 renal = tested on: TK-10 renal
HOP-62 NSCLC = tested on: HOP-62 NSCLC
HL-60(TB) leukemia = tested on: HL-60(TB) leukemia
SNB-75 CNS = tested on: SNB-75 CNS
HCT-116 colon = tested on: HCT-116 colon
HCC-2998 colon = tested on: HCC-2998 colon
SK-OV-3 ovarian = tested on: SK-OV-3 ovarian
M14 melanoma = tested on: M14 melanoma
UACC-62 melanoma = tested on: UACC-62 melanoma
EKVX NSCLC = tested on: EKVX NSCLC
MCF7 breast = tested on: MCF7 breast
SF-268 CNS = tested on: SF-268 CNS
DU-145 prostate = tested on: DU-145 prostate
UACC-257 melanoma = tested on: UACC-257 melanoma
NCI/ADR-RES ovarian = tested on: NCI/ADR-RES ovarian
RXF 393 renal = tested on: RXF 393 renal
SK-MEL-2 melanoma = tested on: SK-MEL-2 melanoma
T-47D breast = tested on: T-47D breast
U251 CNS = tested on: U251 CNS
MALME-3M melanoma = tested on: MALME-3M melanoma
UO-31 renal = tested on: UO-31 renal
BT-549 breast = tested on: BT-549 breast
COLO 205 colon = tested on: COLO 205 colon
A549 NSCLC = tested on: A549 NSCLC
SK-MEL-28 melanoma = tested on: SK-MEL-28 melanoma
CCRF-CEM leukemia = tested on: CCRF-CEM leukemia
OVCAR-3 ovarian = tested on: OVCAR-3 ovarian
SK-MEL-5 melanoma = tested on: SK-MEL-5 melanoma
HOP-92 NSCLC = tested on: HOP-92 NSCLC
SR leukemia = tested on: SR leukemia
SF-539 CNS = tested on: SF-539 CNS
A498 renal = tested on: A498 renal
LOX IMVI melanoma = tested on: LOX IMVI melanoma

## CN(C)/N=N/c1nc2c(c(=O)n(C)c(=O)n2C)n1CC(O)CO (stereo not given)
OVCAR-8 ovarian
  TGI: > 100 µM
SN12C renal
  TGI: > 100 µM
786-0 renal
  TGI: > 100 µM
PC-3 prostate
  TGI: > 100 µM
MDA-MB-435
  TGI: > 100 µM
NCI-H460 lung
  TGI: > 100 µM
HS 578T breast
  TGI: > 100 µM
IGROV1 ovarian
  TGI: > 100 µM
ACHN renal
  TGI: > 100 µM
KM12 colon
  TGI: > 100 µM
MDA-N
  TGI: > 100 µM
SNB-19 CNS
  TGI: > 100 µM
HT29 colon
  TGI: > 100 µM
OVCAR-4 ovarian
  TGI: > 100 µM
CAKI-1 renal
  TGI: > 100 µM
NCI-H23 lung
  TGI: > 100 µM
OVCAR-5 ovarian
  TGI: > 100 µM
MOLT-4 leukemia
  TGI: > 100 µM
MDA-MB-231 breast
  TGI: > 100 µM
NCI-H522 lung
  TGI: > 100 µM
HCT-15 colon
  TGI: > 100 µM
SW-620 colon
  TGI: > 100 µM
NCI-H226 lung
  TGI: > 100 µM
RPMI-8226 leukemia
  TGI: > 100 µM
SF-295 CNS
  TGI: > 100 µM
K-562 leukemia
  TGI: > 100 µM
TK-10 renal
  TGI: > 100 µM
HOP-62 NSCLC
  TGI: > 100 µM
HL-60(TB) leukemia
  TGI: > 100 µM
SNB-75 CNS
  TGI: > 100 µM
HCT-116 colon
  TGI: > 100 µM
HCC-2998 colon
  TGI: > 100 µM
SK-OV-3 ovarian
  TGI: > 100 µM
M14 melanoma
  TGI: > 100 µM
UACC-62 melanoma
  TGI: > 100 µM
EKVX NSCLC
  TGI: > 100 µM
MCF7 breast
  TGI: > 100 µM
SF-268 CNS
  TGI: > 100 µM
DU-145 prostate
  TGI: > 100 µM
UACC-257 melanoma
  TGI: > 100 µM
NCI/ADR-RES ovarian
  TGI: > 100 µM
RXF 393 renal
  TGI: > 100 µM
SK-MEL-2 melanoma
  TGI: > 100 µM
T-47D breast
  TGI: > 100 µM
U251 CNS
  TGI: > 100 µM
MALME-3M melanoma
  TGI: > 100 µM
UO-31 renal
  TGI: > 100 µM
BT-549 breast
  TGI: > 100 µM
COLO 205 colon
  TGI: > 100 µM
A549 NSCLC
  TGI: > 100 µM
SK-MEL-28 melanoma
  TGI: > 100 µM
CCRF-CEM leukemia
  TGI: > 100 µM
OVCAR-3 ovarian
  TGI: > 100 µM
SK-MEL-5 melanoma
  TGI: > 100 µM

## C=C1CCC2(C#N)[C@H]3[C@H](CC[C@@H]2C)[C@@H](C)C[C@@H](CC(C)(C)NC(=O)CN2CCC2=O)[C@H]13 (stereo not given in full)
OVCAR-8 ovarian
  GI50: 4.94 µM
  TGI: 38.1 µM
SN12C renal
  GI50: 11.9 µM
  TGI: 49.5 µM
786-0 renal
  GI50: 13.7 µM
  TGI: 37.8 µM
PC-3 prostate
  GI50: 4.7 µM
  TGI: 36.6 µM
MDA-MB-435
  GI50: 6.19 µM
  TGI: 23.8 µM
HOP-92 NSCLC
  GI50: 3.12 µM
  TGI: 27.5 µM
NCI-H460 lung
  GI50: 7.81 µM
  TGI: 20.5 µM
HS 578T breast
  GI50: 4.79 µM
  TGI: 30.7 µM
IGROV1 ovarian
  GI50: 6.03 µM
  TGI: 23 µM
ACHN renal
  GI50: 11.3 µM
  TGI: 51.4 µM
SR leukemia
  GI50: 4.02 µM
  TGI: 23.6 µM
KM12 colon
  GI50: 3.36 µM
  TGI: 15 µM
SNB-19 CNS
  GI50: 9.58 µM
  TGI: 48.4 µM
HT29 colon
  GI50: 10.5 µM
  TGI: 24.8 µM
OVCAR-4 ovarian
  GI50: 8.9 µM
  TGI: > 100 µM
CAKI-1 renal
  GI50: 10.1 µM
  TGI: 28.8 µM
NCI-H23 lung
  GI50: 10.4 µM
  TGI: 36.7 µM
OVCAR-5 ovarian
  GI50: 10.7 µM
  TGI: 22.5 µM
MOLT-4 leukemia
  GI50: 13.8 µM
  TGI: 70.3 µM
MDA-MB-231 breast
  GI50: 7.97 µM
  TGI: 44.3 µM
NCI-H522 lung
  GI50: 13.5 µM
  TGI: 45.6 µM
HCT-15 colon
  GI50: 3.68 µM
  TGI: 26.8 µM
SW-620 colon
  GI50: 11.3 µM
  TGI: 32.3 µM
NCI-H226 lung
  GI50: 11.2 µM
  TGI: 33.7 µM
RPMI-8226 leukemia
  GI50: 2.87 µM
  TGI: 15.9 µM
SF-295 CNS
  GI50: 3.27 µM
  TGI: 13.4 µM
K-562 leukemia
  GI50: 3.69 µM
  TGI: 53.1 µM
TK-10 renal
  GI50: 16.2 µM
  TGI: 43.3 µM
HOP-62 NSCLC
  GI50: 12.3 µM
  TGI: 29 µM
HL-60(TB) leukemia
  GI50: 5.05 µM
  TGI: 37 µM
SNB-75 CNS
  GI50: 1.57 µM
  TGI: 10.2 µM
HCT-116 colon
  GI50: 3.43 µM
  TGI: 16.2 µM
HCC-2998 colon
  GI50: 7 µM
  TGI: 22.8 µM
SK-OV-3 ovarian
  GI50: 15.8 µM
  TGI: 50.2 µM
M14 melanoma
  GI50: 4.56 µM
  TGI: 17.8 µM
UACC-62 melanoma
  GI50: 6.54 µM
  TGI: 20.1 µM
EKVX NSCLC
  GI50: 6.42 µM
  TGI: > 100 µM
MCF7 breast
  GI50: 4.58 µM
  TGI: 23.4 µM
SF-539 CNS
  GI50: 5.98 µM
  TGI: 19.4 µM
SF-268 CNS
  GI50: 14.2 µM
  TGI: 42.3 µM
DU-145 prostate
  GI50: 12.1 µM
  TGI: 41.1 µM
UACC-257 melanoma
  GI50: 5.4 µM
  TGI: 26.7 µM
A498 renal
  GI50: 9.03 µM
  TGI: 53.1 µM
NCI/ADR-RES ovarian
  GI50: 11.3 µM
  TGI: 38.4 µM
RXF 393 renal
  GI50: 11.5 µM
  TGI: 28 µM
SK-MEL-2 melanoma
  GI50: 15.8 µM
  TGI: 35.6 µM
T-47D breast
  GI50: 2.49 µM
  TGI: 9.64 µM
U251 CNS
  GI50: 4.27 µM
  TGI: 16.6 µM
LOX IMVI melanoma
  GI50: 6.17 µM
  TGI: 19.7 µM
MALME-3M melanoma
  GI50: 8.56 µM
  TGI: 23.9 µM
UO-31 renal
  GI50: 10.2 µM
  TGI: 77.1 µM
BT-549 breast
  GI50: 2.96 µM
  TGI: 17.3 µM
COLO 205 colon
  GI50: 2.56 µM
  TGI: 13 µM
A549 NSCLC
  GI50: 13.3 µM
  TGI: 50.4 µM
SK-MEL-28 melanoma
  GI50: 10.2 µM
  TGI: 23 µM
CCRF-CEM leukemia
  GI50: 12.8 µM
  TGI: 80.3 µM
OVCAR-3 ovarian
  GI50: 3.72 µM
  TGI: 15 µM
SK-MEL-5 melanoma
  GI50: 4.24 µM
  TGI: 16.2 µM
